# How the values were obtained:
# SG3199 = compound: CC1=CN2[C@@H](C1)C=NC3=CC(=C(C=C3C2=O)OC)OCCCCCOC4=C(C=C5C(=C4)N=C[C@@H]6CC(=CN6C5=O)C)OC [SG3199]; settings: max 0.001 µM
# In short: (§1)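 Following 24 hours at 37°C and 5% CO2, cancer cell lines in 1536-well plates with 7.5 μl DMEM/F12 or RPMI and 10% FBS were dosed for 72 hours, final DMSO typically being 0.2%. CellTiter-Glo 2.0 luminescence, scaled between blank-well and DMSO-well means, gave the viability readout. Dose responses were fitted to a two-parameter logistic curve with a non-linear mixed effects model, and the single-agent IC50 was derived from this fit.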
# Lapatinib = compound: CS(=O)(=O)CCNCc1ccc(-c2ccc3ncnc(Nc4ccc(OCc5cccc(F)c5)c(Cl)c4)c3c2)o1 [Lapatinib]; settings: max 10 µM
# In short: as §1
# Trametinib = compound: CC(=O)Nc1cccc(-n2c(=O)n(C3CC3)c(=O)c3c(Nc4ccc(I)cc4F)n(C)c(=O)c(C)c32)c1 [Trametinib]; settings: max 1 µM
# In short: as §1
# Dasatinib = compound: CC1=C(C(=CC=C1)Cl)NC(=O)C2=CN=C(S2)NC3=CC(=NC(=N3)C)N4CCN(CC4)CCO [Dasatinib]; settings: max 2 µM
# In short: as §1
# AZD8186 = compound: C[C@@H](Nc1cc(F)cc(F)c1)c1cc(C(=O)N(C)C)cc2c(=O)cc(N3CCOCC3)oc12 [AZD8186]; settings: max 3 µM
# In short: as §1
# Gefitinib = compound: COc1cc2ncnc(Nc3ccc(F)c(Cl)c3)c2cc1OCCCN1CCOCC1 [Gefitinib]; settings: max 10 µM
# In short: as §1
# Venetoclax = compound: CC1(C)CCC(CN2CCN(c3ccc(C(=O)NS(=O)(=O)c4ccc(NCC5CCOCC5)c([N+](=O)[O-])c4)c(Oc4cnc5[nH]ccc5c4)c3)CC2)=C(c2ccc(Cl)cc2)C1 [Venetoclax]; settings: max 1 µM
# In short: as §1
# Prexasertib = compound: COc1cccc(OCCCN)c1-c1cc(Nc2cnc(C#N)cn2)n[nH]1 [Prexasertib]; settings: max 1 µM
# In short: as §1
# AZD1775 = compound: C=CCn1c(=O)c2cnc(Nc3ccc(N4CCN(C)CC4)cc3)nc2n1-c1cccc(C(C)(C)O)n1 [AZD1775]
# In short: as §1
# AZD6738 = compound: C[C@@H]1COCCN1C2=NC(=NC(=C2)C3(CC3)[S@](=N)(=O)C)C4=C5C=CNC5=NC=C4 [AZD6738]; settings: max 10 µM
# In short: as §1
# Crizotinib = compound: C[C@@H](Oc1cc(-c2cnn(C3CCNCC3)c2)cnc1N)c1c(Cl)ccc(F)c1Cl [Crizotinib]; settings: max 10 µM
# In short: as §1
# Taselisib = compound: Cc1nc(-c2cn3c(n2)-c2ccc(-c4cnn(C(C)(C)C(N)=O)c4)cc2OCC3)n(C(C)C)n1 [Taselisib]; settings: max 10 µM
# In short: as §1
# SN-38 = compound: CCc1c2c(nc3ccc(O)cc13)-c1cc3c(c(=O)n1C2)COC(=O)[C@]3(O)CC [SN-38]; settings: max 0.3 µM
# In short: as §1
# AZD1390 = compound: CC(C)n1c(=O)n(C)c2cnc3cc(F)c(-c4ccc(OCCCN5CCCCC5)nc4)cc3c21 [AZD1390]; settings: max 0.3 µM
# In short: as §1
# AZD5991 = compound: Cc1c2c(nn1C)CSCc1cc(n(C)n1)CSc1cc(c3ccccc3c1)OCCCc1c(C(=O)O)n(C)c3c-2c(Cl)ccc13 [AZD5991]; settings: max 1 µM
# In short: as §1
# Alisertib = compound: COc1cc(Nc2ncc3c(n2)-c2ccc(Cl)cc2C(c2c(F)cccc2OC)=NC3)ccc1C(=O)O [Alisertib]; settings: max 10 µM
# In short: as §1
# AZD7648 = compound: Cc1cc2ncnn2cc1Nc1ncc2c(n1)n(C1CCOCC1)c(=O)n2C [AZD7648]; settings: max 10 µM
# In short: as §1
# Doxorubicin = compound: COc1cccc2c1C(=O)c1c(O)c3c(c(O)c1C2=O)C[C@@](O)(C(=O)CO)C[C@@H]3O[C@H]1C[C@H](N)[C@H](O)[C@H](C)O1 [Doxorubicin]; settings: max 1 µM
# In short: as §1
# Selumetinib = compound: Cn1cnc2c(F)c(Nc3ccc(Br)cc3Cl)c(C(=O)NOCCO)cc21 [Selumetinib]; settings: max 10 µM
# In short: as §1
# AZD2811 = compound: CCN(CCO)CCCOc1ccc2c(Nc3cc(CC(=O)Nc4cccc(F)c4)[nH]n3)ncnc2c1 [AZD2811]; settings: max 1 µM
# In short: as §1
# Capivasertib = compound: C1CN(CCC1(C(=O)N[C@@H](CCO)C2=CC=C(C=C2)Cl)N)C3=NC=NC4=C3C=CN4 [Capivasertib]
# In short: as §1
# Olaparib = compound: O=C(c1cc(Cc2n[nH]c(=O)c3ccccc23)ccc1F)N1CCN(C(=O)C2CC2)CC1 [Olaparib]; settings: max 10 µM
# In short: as §1
# AZD5153 = compound: COc1nnc2ccc(N3CCC(c4ccc(OCCN5CCN(C)C(=O)[C@H]5C)cc4)CC3)nn12 [AZD5153]; settings: max 1 µM
# In short: as §1
# AZD4320 = compound: CN(CC[C@H](CSC1=CC=CC=C1)NC2=C(C=C(C=C2)S(=O)(=O)NC(=O)C3=CC=C(C=C3)N4CCC(CC4)[C@H](C5=CC=CC=C5C6=CC=C(C=C6)Cl)O)S(=O)(=O)C(F)(F)F)CCO [AZD4320]; settings: max 1 µM
# In short: as §1
# AZD0156 = compound: CN(C)CCCOc1ccc(-c2ccc3ncc4c(c3c2)n(C2CCOCC2)c(=O)n4C)cn1 [AZD0156]
# In short: as §1
# Savolitinib = compound: C[C@@H](c1ccc2nccn2c1)n1nnc2ncc(-c3cnn(C)c3)nc21 [Savolitinib]; settings: max 1 µM
# In short: as §1
# Palbociclib = compound: CC(=O)c1c(C)c2cnc(Nc3ccc(N4CCNCC4)cn3)nc2n(C2CCCC2)c1=O [Palbociclib]; settings: max 10 µM
# In short: as §1
Cell Line,"IC50, cell viability 72 h (SG3199)","IC50, cell viability 72 h (Lapatinib)","IC50, cell viability 72 h (Trametinib)","IC50, cell viability 72 h (Dasatinib)","IC50, cell viability 72 h (AZD8186)","IC50, cell viability 72 h (Gefitinib)","IC50, cell viability 72 h (Venetoclax)","IC50, cell viability 72 h (Prexasertib)","IC50, cell viability 72 h (AZD1775; max 3 µM)","IC50, cell viability 72 h (AZD6738)","IC50, cell viability 72 h (Crizotinib)","IC50, cell viability 72 h (Taselisib)","IC50, cell viability 72 h (SN-38)","IC50, cell viability 72 h (AZD1390)","IC50, cell viability 72 h (AZD5991)","IC50, cell viability 72 h (Alisertib)","IC50, cell viability 72 h (AZD7648)","IC50, cell viability 72 h (Doxorubicin)","IC50, cell viability 72 h (Selumetinib)","IC50, cell viability 72 h (AZD2811)","IC50, cell viability 72 h (Capivasertib; max 10 µM)","IC50, cell viability 72 h (Olaparib)","IC50, cell viability 72 h (AZD5153)","IC50, cell viability 72 h (AZD4320)","IC50, cell viability 72 h (AZD0156; max 3 µM)","IC50, cell viability 72 h (Savolitinib)","IC50, cell viability 72 h (Palbociclib)","IC50, cell viability 72 h (Capivasertib; max 3 µM)","IC50, cell viability 72 h (AZD1775; max 1 µM)","IC50, cell viability 72 h (AZD0156; max 1 µM)"
HCC2157 (Breast Carcinoma),> 1 nM,0.0602 µM,> 1000 nM,> 2000 nM,667 nM,4.41 µM,> 1000 nM,22.5 nM,> 3000 nM,2.49 µM,4.09 µM,0.222 µM,14.1 nM,> 300 nM,24.4 nM,0.454 µM,> 10 µM,> 1000 nM,> 10 µM,182 nM,0.307 µM,> 10 µM,12.6 nM,72.1 nM,> 3000 nM,> 1000 nM,> 10 µM,–,–,–
HPAC (Pancreatic Carcinoma),> 1 nM,> 10 µM,22.7 nM,> 2000 nM,> 3000 nM,> 10 µM,> 1000 nM,81.6 nM,1500 nM,> 10 µM,6.65 µM,2.38 µM,> 300 nM,> 300 nM,> 1000 nM,3.96 µM,> 10 µM,> 1000 nM,3.16 µM,> 1000 nM,> 10 µM,> 10 µM,579 nM,> 1000 nM,> 3000 nM,> 1000 nM,> 10 µM,–,–,–
IGR-1 (Melanoma),> 1 nM,8.83 µM,> 1000 nM,> 2000 nM,> 3000 nM,> 10 µM,> 1000 nM,617 nM,> 3000 nM,> 10 µM,6.25 µM,> 10 µM,> 300 nM,> 300 nM,> 1000 nM,> 10 µM,> 10 µM,> 1000 nM,> 10 µM,> 1000 nM,> 10 µM,> 10 µM,> 1000 nM,> 1000 nM,> 3000 nM,> 1000 nM,> 10 µM,–,–,–
J82 (Bladder Carcinoma),> 1 nM,> 10 µM,> 1000 nM,> 2000 nM,> 3000 nM,> 10 µM,> 1000 nM,> 1000 nM,> 3000 nM,> 10 µM,> 10 µM,> 10 µM,80.5 nM,> 300 nM,> 1000 nM,> 10 µM,> 10 µM,> 1000 nM,> 10 µM,> 1000 nM,> 10 µM,> 10 µM,> 1000 nM,> 1000 nM,> 3000 nM,> 1000 nM,> 10 µM,–,–,–
JiyoyeP-2003 (Burkitt's Lymphoma),> 1 nM,> 10 µM,> 1000 nM,1020 nM,> 3000 nM,> 10 µM,> 1000 nM,11.7 nM,597 nM,1.37 µM,> 10 µM,9.67 µM,14.1 nM,> 300 nM,814 nM,0.271 µM,> 10 µM,172 nM,> 10 µM,> 1000 nM,2.32 µM,> 10 µM,49.2 nM,403 nM,> 3000 nM,> 1000 nM,4.7 µM,–,–,–
LU-99A (Non-Small Cell Lung Carcinoma),> 1 nM,> 10 µM,163 nM,1510 nM,> 3000 nM,> 10 µM,> 1000 nM,77.1 nM,> 3000 nM,> 10 µM,> 10 µM,3.08 µM,39.7 nM,> 300 nM,> 1000 nM,> 10 µM,> 10 µM,577 nM,> 10 µM,> 1000 nM,> 10 µM,> 10 µM,> 1000 nM,> 1000 nM,> 3000 nM,> 1000 nM,> 10 µM,–,–,–
NB(TU)1-10 (Neuroblastoma),> 1 nM,–,–,–,–,–,–,8.06 nM,835 nM,6.88 µM,–,–,17 nM,–,–,–,> 10 µM,468 nM,–,> 1000 nM,–,> 10 µM,–,–,> 3000 nM,–,–,> 3 µM,–,–
NCI-H1694 (Small Cell Lung Carcinoma),> 1 nM,> 10 µM,> 1000 nM,> 2000 nM,> 3000 nM,> 10 µM,> 1000 nM,66.9 nM,–,9.06 µM,> 10 µM,> 10 µM,3.95 nM,> 300 nM,109 nM,> 10 µM,> 10 µM,727 nM,> 10 µM,> 1000 nM,> 10 µM,> 10 µM,> 1000 nM,462 nM,–,> 1000 nM,> 10 µM,–,> 1000 nM,> 1000 nM

# Reference: the supplement of paper PMC11061612
